Data published in PMC6478823, “A suite of phenotypic assays to ensure pipeline diversity when prioritizing drug-like Cryptosporidium growth inhibitors” (Nature Communications, 2019).
Values joined by “and” are separate entries in the source; they are usually repeats but may differ in a detail not shown here. Equal entries are not always repeated.

Legend:
C. parvum [1] = test: DNA replication assay (EdU incorporation); assay type: cell-based, Cryptosporidium parvum; details: compound at EC90; for DNA Synthesis Assay: Mean % Inhibition of EdU-labeling (normalized to parasite numbers), Average: average of replicates; for DNA Synthesis Assay: Mean % Inhibition of EdU-labeling (normalized to parasite numbers), Replicate 1: single replicate 1; for DNA Synthesis Assay: Mean % Inhibition of EdU-labeling (normalized to parasite numbers), Replicate 2: single replicate 2; for DNA Synthesis Assay: Mean % Inhibition of EdU-labeling (normalized to parasite numbers), Replicate 3: single replicate 3; for DNA Synthesis Assay: Mean % Inhibition of EdU-labeling (normalized to parasite numbers), Replicate 4: single replicate 4
[2] = test system: C. parvum DMC1 expression; test: Sexual differentiation assay (DMC1 expression); assay type: cell-based, Cryptosporidium parvum; details: for Asexual to sexual differentiation: Mean % DMC1 inhibition (normalized to host nuclei), Average: average of replicates; for Asexual to sexual differentiation: Mean % DMC1 inhibition (normalized to host nuclei), Replicate 1a: single replicate 1; for Asexual to sexual differentiation: Mean % DMC1 inhibition (normalized to host nuclei), Replicate 2a: single replicate 2; for Asexual to sexual differentiation: Mean % DMC1 inhibition (normalized to host nuclei), Replicate 3a: single replicate 3; for 48 - 72 h DMC1 (asexual to sexual conversion): Mean % DMC1 inhibition (normalized to host nuclei): replicates 1-3 in separate columns
How it was run: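 High-content microscopy of infected cells fixed at set times post-infection, stained with anti-DMC1 mAb 1H10G7, Vicia villosa lectin and Hoechst; lectin-positive parasites counted, then DMC1-positive.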

Cryptosporidium = details: cited from earlier work
C. parvum [3] = details: cited from earlier work; for activity in NSG mouse model: ref Jumani, et al. 2018. AAC.
C. parvum [4] = test: Time course infection experiment (PV numbers versus time)
Method: For quantification of parasitophorous vacuoles over time, HCT-8 cells were grown to greater than 90% confluence in 384-well plates and infected with 11,000 oocysts after triggering excystation.

[5] = compound at asexual EC90, 48-72 h
[6] = ref Love, et al. 2017. PLoS NTD.

Row | Compound | DNA Synthesis Assay: Mean % Inhibition of EdU-labeling (normalized to parasite numbers), Average (C. parvum [1]) [%] | DNA Synthesis Assay: Mean % Inhibition of EdU-labeling (normalized to parasite numbers), Replicate 1 (C. parvum [1]) [%] | DNA Synthesis Assay: Mean % Inhibition of EdU-labeling (normalized to parasite numbers), Replicate 2 (C. parvum [1]) [%] | Asexual to sexual differentiation: Mean % DMC1 inhibition (normalized to host nuclei), Average [2, 5] [%] | Asexual to sexual differentiation: Mean % DMC1 inhibition (normalized to host nuclei), Replicate 1a [2, 5] [%] | Asexual to sexual differentiation: Mean % DMC1 inhibition (normalized to host nuclei), Replicate 2a [2, 5] [%] | DNA Synthesis Assay: Mean % Inhibition of EdU-labeling (normalized to parasite numbers), Replicate 3 (C. parvum [1]) [%] | Asexual to sexual differentiation: Mean % DMC1 inhibition (normalized to host nuclei), Replicate 3a [2, 5] [%] | also measured
1 | CCOc1ccc2cc(-c3nn(CC4CCN(C)CC4)c4ncnc(N)c34)ccc2c1 [BKI-1294] | -5.73 | -9.55 | -1.92 | 45.56 | 58.94 | 32.18 |  |  | anticryptosporidial activity in the acute IFN-γ knockout mouse infection model (Cryptosporidium; ref Castellanos-Gonzalez, et al. 2013. JID. and Love, et al. 2017. PLoS NTD.): previously demonstrated anticryptosporidial activity
2 | CC(C)/N=c1\cc2n(-c3ccc(Cl)cc3)c3ccccc3nc-2cc1Nc1ccc(Cl)cc1 [Clofazimine] | 88.58 | 99.92 | 100.00 | 89.18 | 91.44 | 86.93 | 87.22 |  | DNA Synthesis Assay: Mean % Inhibition of EdU-labeling (normalized to parasite numbers), Replicate 4 (C. parvum [1]): 73.51%; DNA Synthesis Assay: Mean % Inhibition of EdU-labeling (normalized to parasite numbers), Replicate 5 (C. parvum [1]; single replicate 5): 82.28%; efficacy in chronic NOD SCID gamma (NSG) mouse model (C. parvum [3]): not efficacious; activity in NOD SCID γ mouse model (C. parvum [3]; [6]): inactive; efficacy in acute, self-resolving IFN-γ KO mouse model (Cryptosporidium): efficacious; activity in IFN-γ knockout mouse model (Cryptosporidium; [6]): active
3 | Cc1cccc(-n2ncc3c(O)nc(-n4nc(C)cc4NC(=O)c4cc5ccccc5o4)nc32)c1 [C-1] | 91.44 | 100 | 100 | 30.35 | 26.21 | 37.12 | 74.32 | 27.73 | Parasites Detected, Average (C. parvum [4]; C1 at 2*EC90, 6 h post-infection): 1992; Parasites Detected, Average (C. parvum [4]; C1 at 2*EC90, 9.5 h post-infection): 2503; Parasites Detected, Average (C. parvum [4]; C1 at 2*EC90, 12 h post-infection): 1773; Parasites Detected, Average (C. parvum [4]; C1 at 2*EC90, 13.5 h post-infection): 1847; Parasites Detected, Average (C. parvum [4]; C1 at 2*EC90, 15 h post-infection): 879; Parasites Detected, Average (C. parvum [4]; C1 at 2*EC90, 18 h post-infection): 1045; Parasites Detected, Average (C. parvum [4]; C1 at 2*EC90, 19.5 h post-infection): 1400; Parasites Detected, Average (C. parvum [4]; C1 at 2*EC90, 22.5 h post-infection): 945; Parasites Detected, Average (C. parvum [4]; C1 at EC90, 6 h post-infection): 2336; Parasites Detected, Average (C. parvum [4]; C1 at EC90, 9.5 h post-infection): 2363; Parasites Detected, Average (C. parvum [4]; C1 at EC90, 12 h post-infection): 2052; Parasites Detected, Average (C. parvum [4]; C1 at EC90, 13.5 h post-infection): 2149; Parasites Detected, Average (C. parvum [4]; C1 at EC90, 15 h post-infection): 1056; Parasites Detected, Average (C. parvum [4]; C1 at EC90, 18 h post-infection): 1258; Parasites Detected, Average (C. parvum [4]; C1 at EC90, 19.5 h post-infection): 2054; Parasites Detected, Average (C. parvum [4]; C1 at EC90, 22.5 h post-infection): 2003
4 | NC[C@@H]1O[C@H](O[C@H]2[C@@H](O)[C@H](O[C@@H]3[C@@H](O)[C@H](N)C[C@H](N)[C@H]3O[C@H]3O[C@H](CO)[C@@H](O)[C@H](O)[C@H]3N)O[C@@H]2CO)[C@H](N)[C@@H](O)[C@@H]1O [Paromomycin] | 18.81 | -11.54 | 39.99 | 43.80 | 58.59 | 65.91 | 27.99 | 6.88 | effect on C. parvum DNA replication / EdU incorporation (C. parvum [1]; result in words): no effect on EdU incorporation; activity in NSG mouse model (C. parvum [3]): active
5 | O=C(Nc1ccc(Cl)cc1)N1CCN(c2ccc3nncn3n2)CC1 [D-1] | 23.98 | 20.68 | 7.95 | 83.01 | 87.55 | 90.87 | 36.52 | 72.73 | DNA Synthesis Assay: Mean % Inhibition of EdU-labeling (normalized to parasite numbers), Replicate 4 (C. parvum [1]): 30.78%; 48 - 72 h DMC1 (asexual to sexual conversion): Mean % DMC1 inhibition (normalized to host nuclei) ([2]; D-1 at log conc (µM) 0.16): -9.83% and -22.30% and 31.77%; 48 - 72 h DMC1 (asexual to sexual conversion): Mean % DMC1 inhibition (normalized to host nuclei) ([2]; D-1 at log conc (µM) 0.46): 54.19% and 44.15% and 54.54%; 48 - 72 h DMC1 (asexual to sexual conversion): Mean % DMC1 inhibition (normalized to host nuclei) ([2]; D-1 at log conc (µM) 0.58): 71.57% and 53.72% and 69.21%; 48 - 72 h DMC1 (asexual to sexual conversion): Mean % DMC1 inhibition (normalized to host nuclei) ([2]; D-1 at log conc (µM) 0.71): 84.32%; 48 - 72 h DMC1 (asexual to sexual conversion): Mean % DMC1 inhibition (normalized to host nuclei) ([2]; D-1 at log conc (µM) 1.18): 94.93% and 94.90% and 95.67%; 48 - 72 h DMC1 (asexual to sexual conversion): Mean % DMC1 inhibition (normalized to host nuclei) ([2]; D-1 at log conc (µM) 1.66): 95.75% and 98.23% and 93.36%; 48 - 72 h DMC1 (asexual to sexual conversion): Mean % DMC1 inhibition (normalized to host nuclei) ([2]; D-1 at log conc (µM) -0.14): 2.15% and -53.03% and -30.95%; 48 - 72 h DMC1 (asexual to sexual conversion): Mean % DMC1 inhibition (normalized to host nuclei) ([2]; D-1 at log conc (µM) -0.62): -16.25% and -49.91% and -40.61%; 48 - 72 h DMC1 (asexual to sexual conversion): Mean % DMC1 inhibition (normalized to host nuclei) ([2]; D-1 at log conc (µM) -1.10): -18.85% and -40.36% and -14.22%; activity in the DMC1 (sexual development) assay relative to asexual assay ([2]; compound added at 48 h, read at 72 h, result in words): equal potency before and after 48 h; Asexual to sexual differentiation: Mean % DMC1 inhibition (normalized to host nuclei), Replicate 4a ([2]; compound at asexual EC90, 48-72 h, single replicate 4): 66.31%; Asexual to sexual differentiation: Mean % DMC1 inhibition (normalized to host nuclei), Replicate 5a ([2]; compound at asexual EC90, 48-72 h, single replicate 5): 89.27%; Asexual to sexual differentiation: Mean % DMC1 inhibition (normalized to host nuclei), Replicate 6a ([2]; compound at asexual EC90, 48-72 h, single replicate 6): 91.32%; EC50 ([2]; inhibition of DMC1 expression from 48 to 72 h, range in brackets, read-out: 48 − 72 h DMC1 (asexual to sexual conversion): EC50): 2.4 µM; efficacy in chronic NSG mouse model (C. parvum [3]): efficacious; activity in NSG mouse model (C. parvum [3]): Active; efficacy in acute IFN-γ KO mouse model (Cryptosporidium): efficacious
6 | CN(C)S(=O)(=O)c1ccc(C(=O)N2CCN(c3ccc4nncn4n3)CC2)cc1 [D-44] | 12.07 | 29.16 | 10.90 | 74.35 | 86.32 | 62.37 | -3.84 |  | 
7 | CN(C)c1ccc(C(=C2C=CC(=[N+](C)C)C=C2)c2ccc(N(C)C)cc2)cc1 [Gentian Violet] | 47.40 | 62.13 | 74.23 | 34.34 | 8.16 | 38.90 | 5.82 | 55.96 | 
